The record followed here is paper PMC6150226, “Inhibition of Human Kallikrein 5 Protease by Triterpenoids from Natural Sources” (Molecules : A Journal of Synthetic Chemistry and Natural …, 2017).

One data set concerns the target T1, recombinant human KLK5 (Homo sapiens, UniProt Q9Y337).
T1 construct: purchased R & D Systems Inc
T1 sequence (Q9Y337 23-293): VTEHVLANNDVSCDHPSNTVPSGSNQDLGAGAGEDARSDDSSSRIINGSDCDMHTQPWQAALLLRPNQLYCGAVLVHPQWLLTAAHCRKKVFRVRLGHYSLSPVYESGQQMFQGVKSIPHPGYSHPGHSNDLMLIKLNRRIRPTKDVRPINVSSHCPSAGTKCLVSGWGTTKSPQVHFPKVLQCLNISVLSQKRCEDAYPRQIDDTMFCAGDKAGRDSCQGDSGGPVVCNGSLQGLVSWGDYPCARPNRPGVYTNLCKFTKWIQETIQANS
Put plainly: KLK5 enzymatic assay (Boc-V-P-R-AMC fluorogenic substrate). The format is biochemical. Conditions: for IC50: dose-response experiment of Figure 2, read-out: IC50 anti-KLK5 activity.

Data set [1] relates to LL-37 production in normal human epidermal keratinocytes (NHEKs). In kind it is cell-based. Conditions: ursolic acid 0.5 and 5 μM, tumulosic acid 1 and 10 μM; 23 h; in the presence of 10 μM cycloheximide.
For data set [2], the system named is recombinant human trypsin. Put plainly: Trypsin enzymatic assay (Boc-V-P-R-AMC). In kind it is biochemical. Conditions: for IC50: 0.78-100 μM, linear interpolation. The protocol: (§1) KLK5, KLK7, trypsin, and chymotrypsin C activities were evaluated according to the following methods supplied by R & D Systems Inc. (Minneapolis, MN, USA). The enzyme activity-dependent increase in the relative fluorescent unit (RFU) was measured, and the percentage of inhibition was calculated based on the formula: (1 − (A − B)/(C − B)) × 100, where A = RFU of test samples with enzymes, B = basal RFU without enzymes, and C = RFU of vehicle controls with enzymes.
To measure the trypsin activity, enzymatic reaction was performed at room temperature in 100 mM NaH2PO4 buffer (pH 8.0) containing 0.25 μg/mL recombinant human trypsin (Wako Pure Chemical Industries), 100 μM of Boc-V-P-R-AMC Fluorogenic Peptide Substrate, and 1.1% DMSO at final concentrations. […] was preincubated with test samples for 5 min, followed by the addition of peptide substrate. After incubating for 1 min, RFU was measured at Ex 380 nm/Em 460 nm. Leupeptin hemisulfate (42.1 μM) was used as a positive control.

The target of data set [3] is T2, recombinant human pro-chymotrypsin C activated by trypsin (Chymotrypsin C) (Homo sapiens, UniProt Q99895).
T2 construct: purchased R & D Systems Inc
The data set can be described thus: Chymotrypsin C enzymatic assay (Suc-A-A-P-F-AMC). The format is biochemical. As for the experimental part:
as §1, with “enzymes. […] Activated chymotrypsin C (final 34.7 nM) was preincubated with test samples for 5 min, followed by the addition of peptide substrate. After incubating for 60 min, RFU was measured at Ex 380 nm/Em 460 nm.” for “enzymes.”

The nature of data set [4]: Plasma pharmacokinetics of triterpenoids in rats after oral Jumihaidokuto (LC-MS/MS). Conditions: rat, single oral Jumihaidokuto 2 g/10 mL/kg. The format is in vivo. The protocol: Male Sprague–Dawley rats were purchased from Charles River Laboratories (Yokohama, Japan). The plasma pharmacokinetic study was performed according to the “Guidelines for the Care and Use of Laboratory Animals” of Tsumura & Co. Ethical approval for experimental procedures was obtained from the Laboratory Animal Committee of Tsumura & Co. Jumihaidokuto (JHT, Lot No. 332031900) was supplied by Tsumura & Co. (Tokyo, Japan) in the form of a powdered extract. JHT prepared in distilled water was orally administered to 16-h fasted rats at 2 g/10 mL/kg (n = 3). […] Plasma was obtained by centrifugation at 1700 g for 15 min at 4 °C and stored at −80 °C until further processing. […] Twenty-five microliters of methanol, an equal volume of atropine (2 ng/mL; Wako Pure Chemical Industries) as internal standard, and 750 µL of methanol were added to 200 µL of plasma samples, followed by mixing and centrifugation (7000× g, 5 min). For the preparation of the calibration curve, the same volumes of various concentrations of working solution were used instead of methanol. The supernatant was dried at 40 °C under a stream of nitrogen gas. The dried residue was dissolved in 50–60 μL of the initial mobile phase used for liquid chromatography–mass spectrometry with a tandem mass spectrometry system (LC-MS/MS; API4000 or Triple Quad 6500; AB Sciex, Tokyo, Japan) and then a 10- or 20-μL portion was injected into the LC-MS/MS system for the quantification of triterpenoids.

Where [5] appears, read: 10 μM test compound, KLK5 8.1 nM, substrate 100 μM, mean ± SEM of triplicate.
Setting [6] is: 10 μM test compound, KLK5 8.1 nM, substrate 100 μM, mean ± SEM of triplicate, read-out: Anti-KLK5 Activity % Inhibition.

Where two headings read alike, the source gives them in different places. Some results are limits rather than exact numbers.

T2 sequence (Q99895 30-268, other chains not shown): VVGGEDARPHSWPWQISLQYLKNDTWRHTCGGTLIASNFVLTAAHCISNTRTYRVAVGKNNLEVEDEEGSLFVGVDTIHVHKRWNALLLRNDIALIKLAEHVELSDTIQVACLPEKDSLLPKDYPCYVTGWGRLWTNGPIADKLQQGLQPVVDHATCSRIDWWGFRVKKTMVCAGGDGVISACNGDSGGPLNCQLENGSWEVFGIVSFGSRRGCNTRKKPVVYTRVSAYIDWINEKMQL

What is called inhibition is the drop in the measured response relative to a control, in per cent. In the case of `CC1(C)CCC2(C(=O)O)C(O)CC3(C)C(=CCC4C5(C)CC(O)C(O)C(C)(CO)C5CCC43C)C2C1` (stereo not shown) [Polygalacic acid], the “Anti-KLK5 Activity % Inhibition” value on recombinant human KLK5 (setting [5]) is recorded as “did not influence the KLK5 activity”. Besides, on recombinant human KLK5 (setting [6]), the inhibition at 10 µM turned out to be 5.5 ± 2.3%.
As for `C[C@@H]1O[C@@H](O[C@H]2[C@H](OC(=O)[C@]34CCC(C)(C)C[C@H]3C3=CC[C@@H]5[C@@]6(C)C[C@H](O)[C@H](O[C@@H]7O[C@H](CO)[C@@H](O)[C@H](O)[C@H]7O)C(CO)(CO)[C@@H]6CC[C@@]5(C)[C@]3(C)C[C@H]4O)OC[C@H](O)[C@@H]2O)[C@H](O)[C@H](O)[C@H]1O[C@@H]1OC[C@@H](O)[C@H](O[C@@H]2OC[C@](O)(CO)[C@H]2O)[C@H]1O` [Platycodin D], the inhibition at 10 µM on recombinant human KLK5 (setting [6]) is -6 ± 2.9%.
A word on the IC50: it is the concentration at which inhibition is half-maximal. On to `CC1(C)CC[C@]2(C(=O)O)CC[C@]3(C)C(=CC[C@@H]4[C@@]5(C)CC[C@H](O)C(C)(C)[C@@H]5CC[C@]43C)[C@@H]2C1` [Oleanolic acid], for which the IC50 at recombinant human KLK5 was determined as 6.4 µM.
In the case of `CC(=O)N[C@@H](CC(C)C)C(=O)N[C@@H](CC(C)C)C(=O)N[C@H](C=O)CCCN=C(N)N.CC(=O)N[C@@H](CC(C)C)C(=O)N[C@@H](CC(C)C)C(=O)N[C@H](C=O)CCCN=C(N)N.O=S(=O)(O)O` [Leupeptin hemisulfate, reference compound], the “Anti-KLK5 Activity % Inhibition” value at recombinant human KLK5 (42.1 μM (positive control), KLK5 8.1 nM, mean ± SEM of triplicate) was 96.9 ± 0.1%; at recombinant human KLK5 (42.1 μM (positive control), KLK5 8.1 nM, mean ± SEM of triplicate, listed as leupeptin hemisulfate), “completely inhibited”.
For `CC1(C)CCC2(CO)C(=C3C=CC4C5(C)CCC(O)C(C)(CO)C5CCC4(C)C3(C)CC2O)C1` (stereo not shown) [Saikogenin A], the “Anti-KLK5 Activity % Inhibition” value at recombinant human KLK5 (setting [5]) came out at 24.3 ± 2.6%.
Turning to `C[C@H]1[C@H](C)CC[C@]2(C(=O)O)CC[C@]3(C)C(=CC[C@@H]4[C@@]5(C)CC[C@H](O)C(C)(C)[C@@H]5CC[C@]43C)[C@H]12` [Ursolic acid], the “amount of LL-37 in NHEK lysates” value in data set [1] is “decreased”. Moreover, the “Inhibition % at 100 μM, Trypsin” value in data set [2] (100 μM) came out at 76.9 ± 3.5%. For the same compound, the IC50 was 14.8 µM in data set [2] (listed as Ursolic Acid); 10.5 µM in data set [2] (listed as ursolic acid); greater than 100 µM in data set [3] (0.78-100 μM, linear interpolation). In addition, on recombinant human KLK5 (read-out: Anti-KLK5 Activity % Inhibition), the inhibition at 10 µM stood at 54.6 ± 1.3%. Also, in data set [3] (100 μM), the inhibition at 100 µM turned out to be 35.3 ± 2.9%.
Turning to `CC1(C)CCC2(CO)C(=C3C=CC4C5(C)CCC(O)C(C)(CO)C5CCC4(C)C3(C)CC2O)C1` (stereo not shown) [Saikogenin D], the “Anti-KLK5 Activity % Inhibition” value at recombinant human KLK5 (setting [5]) is −1.5 ± 3.6%.
For `C=C(CC[C@@H](C(=O)O)[C@H]1CC[C@@]2(C)C3=C(CC[C@]12C)[C@@]1(C)CC[C@H](O)C(C)(C)[C@@H]1CC3)C(C)C` [Eburicoic acid], the inhibition at 10 µM on recombinant human KLK5 (setting [6]) is -51 ± 3%.
`C=C(CC[C@@H](C(=O)O)[C@H]1[C@H](O)C[C@@]2(C)C3=CC[C@H]4C(C)(C)[C@@H](O)CC[C@]4(C)C3=CC[C@]12C)C(C)C` [Dehydrotumulosic acid]: on recombinant human KLK5 (setting [6]), the inhibition at 10 µM is -46.2 ± 2.7%.
Still for that read-out and setting: the same measure for `CC1(C)CCC2(C(=O)O)C(C1)C1=CCC3C4(C)CC(O)C(O)C(CO)(CO)C4CCC3(C)[C@]1(C)C[C@H]2O` (stereo partly shown) [Platycodigenin]: 8.8 ± 2%.
On to `CC1OC(OC2C(COC3OC(CO)C(O)C(O)C3O)OC(OC3CCC4(C)C(CCC5(C)C4C=CC46OCC7(CCC(C)(C)CC74)[C@@H](O)C[C@@]56C)C3(C)C)C(O)C2O)C(O)C(O)C1O` (stereo partly shown) [Saikosaponin c], for which the inhibition at 10 µM at recombinant human KLK5 (setting [6]) is 4.1 ± 1.6%.
Still for that read-out and setting: the result for `C[C@H]1O[C@@H](O[C@H]2CC[C@@]3(C)[C@@H](CC[C@]4(C)[C@@H]3C=C[C@]35OC[C@@]6(CCC(C)(C)C[C@H]63)[C@@H](O)C[C@]54C)[C@]2(C)CO)[C@H](O)[C@@H](O[C@@H]2O[C@H](CO)[C@@H](O)[C@H](O)[C@H]2O)[C@H]1O` [Saikosaponin a] reads 4.3 ± 0.7%.
Consider `CC1OC(OC2CCC3(C)C(CCC4(C)C3C=CC3=C5CC(C)(C)CCC5(CO)C(O)CC34C)C2(C)CO)C(O)C(OC2OC(CO)C(O)C(O)C2O)C1O` (stereo not shown) [Saikosaponin b2], for which the “Anti-KLK5 Activity % Inhibition” value on recombinant human KLK5 (setting [5]) came out at 21.1 ± 1.4%.
On to `C=C(C)[C@@H]1CC[C@]2(C(=O)O)CC[C@]3(C)[C@H](CC[C@@H]4[C@@]5(C)CC[C@H](O)C(C)(C)[C@@H]5CC[C@]43C)[C@@H]12` [Betulinic acid], for which the “Anti-KLK5 Activity % Inhibition” value at recombinant human KLK5 (setting [5]) is recorded as “did not influence the KLK5 activity”. Also, the inhibition at 10 µM at recombinant human KLK5 (setting [6]) is 5.5 ± 2.5%.
In general, Cmax refers to the maximum level reached in the sampled fluid or tissue. `C=C(CC[C@@H](C(=O)O)[C@H]1[C@H](O)C[C@@]2(C)C3=C(CC[C@]12C)[C@@]1(C)CC[C@H](OC(C)=O)C(C)(C)[C@@H]1CC3)C(C)C` [Pachymic acid]: on recombinant human KLK5 (setting [6]), the inhibition at 10 µM turned out to be 56.2 ± 1.5%. Besides, the IC50 at recombinant human KLK5 came out at 5.9 µM. The compound further yielded a Cmax in data set [4] (male, Sprague-Dawley, plasma, 2 g/kg) of 2.1 ng/mL. Also, the “time of Cmax” value in data set [4] turned out to be 6 h.
In the case of `C[C@H]1O[C@@H](O[C@H]2CC[C@@]3(C)[C@@H](CC[C@]4(C)[C@@H]3C=CC3=C5CC(C)(C)CC[C@]5(CO)[C@@H](O)C[C@]34C)[C@]2(C)CO)[C@H](O)[C@@H](O[C@@H]2O[C@H](CO)[C@@H](O)[C@H](O)[C@H]2O)[C@H]1O` [Saikosaponin b1], the inhibition at 10 µM on recombinant human KLK5 (setting [6]) came to 39.6 ± 1.6%. Besides, the IC50 at recombinant human KLK5 amounted to 14.4 µM.
For `CC1(C(=O)O)CCC2(C)CCC3(C)C(=CC(=O)C4C5(C)CCC(O)C(C)(C)C5CCC43C)C2C1` (stereo not drawn) [18β-Glycyrrhetinic acid], the inhibition at 30 µM on recombinant human KLK5 (30 μM, KLK5 8.1 nM, substrate 100 μM, mean ± SEM of triplicate, read-out: Anti-KLK5 Activity % Inhibition) came to 16 ± 1.2%.
Take `CC1OC(OC2CCC3(C)C(CCC4(C)C3C=CC35OCC6(CCC(C)(C)CC63)C(O)CC45C)C2(C)CO)C(O)C(OC2OC(CO)C(O)C(O)C2O)C1O` (stereo not shown) [Saikosaponin d]: the inhibition at 10 µM on recombinant human KLK5 (setting [6]) was -10.4 ± 3.5%.
As to `C[C@@H]1C[C@H]2[C@@H]3CCC4=CC(=O)C=C[C@]4(C)[C@@]3(F)[C@@H](O)C[C@]2(C)[C@@]1(O)C(=O)CO` [Dexamethasone, reference compound], the “Anti-KLK5 Activity % Inhibition” value at recombinant human KLK5 (setting [5]) is listed as “did not influence the KLK5 activity”. In addition, at recombinant human KLK5 (setting [6]), the inhibition at 10 µM is -1.8 ± 2.8%.
For `C=C(CC[C@@H](C(=O)O)C1[C@H](O)C[C@@]2(C)C3=CCC4C(C)(CCC(OC(C)=O)C4(C)C)C3=CCC12C)C(C)C` (stereo partly shown) [Dehydropachymic acid], on recombinant human KLK5 (setting [6]), the inhibition at 10 µM is 33.9 ± 3.7%.
